Source: patent publication US20240141017A1, “FLUORESCENT BIOSENSORS AND METHODS OF USE FOR DETECTING CELL SIGNALING EVENTS” (THE REGENTS OF THE UNIVERSITY OF MICHIGAN, priority 2021, published 2024)

What was measured:
M-SPOTIT2 = format: cell-based; settings: pH 11
K-SPOTIT1.0 = biological target: T1, K-SPOTIT1.0 (Homo sapiens, UniProt P41145); format: cell-based
T1 construct: expressed in transfected cells; host or cells: HEK293T (lentiviral infection)

MOR = MOR (Homo sapiens, UniProt P35372); settings: previous studies; cited from earlier work
[1] = biological target: kappa-opioid receptor (KOR) as in K-SPOTIT1.0 (Homo sapiens (Human)) (UniProt P41145); experiment: cell-based or functional assay

T1 sequence (P41145 with tags, fused parts or gaps): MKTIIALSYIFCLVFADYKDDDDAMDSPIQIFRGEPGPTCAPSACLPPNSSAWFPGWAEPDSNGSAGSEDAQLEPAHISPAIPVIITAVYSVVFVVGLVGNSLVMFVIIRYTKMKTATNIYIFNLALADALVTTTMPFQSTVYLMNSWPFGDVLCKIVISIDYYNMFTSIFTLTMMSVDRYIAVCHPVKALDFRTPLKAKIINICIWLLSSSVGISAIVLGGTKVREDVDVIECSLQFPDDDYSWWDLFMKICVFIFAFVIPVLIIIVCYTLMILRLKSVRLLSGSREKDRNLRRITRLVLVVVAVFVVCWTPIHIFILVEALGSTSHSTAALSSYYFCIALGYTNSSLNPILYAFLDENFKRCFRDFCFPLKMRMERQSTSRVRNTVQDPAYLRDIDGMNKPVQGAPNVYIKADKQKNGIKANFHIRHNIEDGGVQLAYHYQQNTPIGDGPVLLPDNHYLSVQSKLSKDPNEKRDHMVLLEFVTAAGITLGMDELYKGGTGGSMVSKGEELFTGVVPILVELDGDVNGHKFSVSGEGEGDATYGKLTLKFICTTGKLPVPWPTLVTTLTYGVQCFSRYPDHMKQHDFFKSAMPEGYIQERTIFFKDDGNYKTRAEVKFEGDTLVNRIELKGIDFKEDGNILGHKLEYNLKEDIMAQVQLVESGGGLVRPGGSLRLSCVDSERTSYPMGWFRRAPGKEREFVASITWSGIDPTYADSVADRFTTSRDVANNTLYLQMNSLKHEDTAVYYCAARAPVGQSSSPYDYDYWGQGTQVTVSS
MOR, sequence (P35372 whole entry): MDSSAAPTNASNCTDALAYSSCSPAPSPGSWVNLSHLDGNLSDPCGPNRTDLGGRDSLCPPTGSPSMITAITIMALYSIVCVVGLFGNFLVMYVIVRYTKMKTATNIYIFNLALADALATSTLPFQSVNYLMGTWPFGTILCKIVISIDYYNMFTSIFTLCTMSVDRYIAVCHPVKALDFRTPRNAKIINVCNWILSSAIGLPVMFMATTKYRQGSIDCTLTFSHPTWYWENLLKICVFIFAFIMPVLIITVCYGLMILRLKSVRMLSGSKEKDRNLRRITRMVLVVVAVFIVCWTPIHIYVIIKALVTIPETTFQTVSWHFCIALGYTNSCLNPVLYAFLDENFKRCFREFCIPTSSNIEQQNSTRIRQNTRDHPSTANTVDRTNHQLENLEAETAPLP

With COC(=O)[C@@H]1C[C@H](OC(C)=O)C(=O)[C@H]2[C@@]1(C)CC[C@H]1C(=O)O[C@H](c3ccoc3)C[C@]21C [Sal A, Salvinorin A] the SNR (M-SPOTIT2) was “much lower SNR”.

With CN(C)C(=O)C(CCN1CCC(O)(c2ccc(Cl)cc2)CC1)(c1ccccc1)c1ccccc1 [loperamide] the SNR (M-SPOTIT2) was “highest SNR”.

With CN1CC[C@]23c4c5ccc(O)c4O[C@H]2[C@@H](O)C=C[C@H]3[C@H]1C5 [morphine] the SNR (M-SPOTIT2) was “highest SNR”.

With Oc1ccc2c3c1O[C@H]1c4[nH]c5c(c4C[C@@]4(O)[C@@H](C2)N(CC2CC2)CC[C@]314)C[C@@]1(O)[C@H]2Cc3ccc(O)c4c3[C@@]1(CCN2CC1CC1)[C@H]5O4 [Nor-BNI, nor-binaltorphimine] the “fluorescence before and after addition of KOR antagonist post fluorophore maturation” value (K-SPOTIT1.0) was “Comparable fluorescence” and the “fluorescence increase when antagonist added after initial 30-second agonist stimulation, vs Nor-BNI only cells” value (K-SPOTIT1.0) was “No significant fluorescence increase”.

In the case of CC(C)C[C@@H](NC(=O)[C@H](Cc1ccccc1)NC(=O)CNC(=O)[C@@H](C)NC(=O)[C@@H](N)Cc1ccc(O)cc1)C(=O)O [DADLE], the “affinity for MOR” value (MOR) is given as “weak affinity”.

With C=CCN1CC[C@]23c4c5ccc(O)c4O[C@H]2C(=O)CC[C@@]3(O)[C@H]1C5 [naloxone] the SNR (M-SPOTIT2) was “much lower SNR”.

For O=C(Cc1ccc(Cl)c(Cl)c1)N1CCCCC1CN1CCCC1 (stereo not drawn) [BRL52537], the SNR (M-SPOTIT2) was “much lower SNR”.

With COc1ccc2c3c1O[C@H]1C(=O)CC[C@@]4(O)[C@@H](C2)N(C)CC[C@]314 [oxycodone] the SNR (M-SPOTIT2) was “highest SNR”.

B1: Gαi protein mimic nanobody 39 (Nb39) (VHH)
VHH: QVQLVESGGGLVRPGGSLRLSCVDSERTSYPMGWFRRAPGKEREFVASITWSGIDPTYADSVADRFTTSRDVANNTLYLQMNSLKHEDTAVYYCAARAPVGQSSSPYDYDYWGQGTQVTVSS
B1 gave a cpGFP fluorescence of K-SPOTIT1.0 after a 30-second pulse of Sal A, then 24 hours of incubation [1] of 4.2 fold, a cpGFP fluorescence of K-SPOTIT1.0 after longer Sal A incubation [1] of 12 fold and a cpGFP fluorescence of K-SPOTIT1.0 in HEK293T cells, 24 hours with 10 µM Salvinorin A against no Sal A [1] of 10.9 fold.
